In assay [1] the test system is HeLa cells. The assay can be described thus: CellTiter-Glo cell viability, HeLa cells. It is filed as cell-based. To be noted: Homo sapiens; HeLa cells, 72 hours, CellTiter-Glo. As for the experimental part:
(§1) The cell viability IC50 of each compound was determined using Promega CellTiter-Glo Luminescent Cell Viability Assay kit by measuring the total ATP levels to quantify the number of metabolically active cells upon drug treatment as described in Crouch et al., J Immunol Methods 1993, 160, (1), 81-8. Briefly, the compounds were suspended in DMSO at 10 mM and diluted in 384 plates (20 μl/well in DMSO) in triplicate by a 14-point titration (12 nM to 100 μM). 50 μl of HeLa cells or patient derived glioblastoma cells (HK-309) (2000 cells/well) were then treated with the prepared dilutions of the drugs (0.5 μl) and incubated at 37° C. and 5% CO2. 72 hours later 50 μl of CellTiter-Glo reagent was added to each well followed by a 2 minutes shaking and a 10-minute incubation to lyse the cells. The relative luminescent intensity units (RLU) of each well was measured using a Tecan M1000 microplate reader (Tecan Group Ltd.) with its green filter and 1 second integration time.
(§2) Cells used in Example 2 and other examples disclosed herein were cultured as follows: Adherent HeLa cells and patient derived glioblastoma cells were grown with 5% CO2 at 37° C. in F12:DMEM 50:50 medium (Invitrogen) containing 10% FBS and 1% penicillin/streptomycin. To obtain HeLa cells synchronized in mitosis, cycling cells were treated with 2 mM thymidine (Sigma-Aldrich) for eighteen hours, washed three times with PBS, and released into fresh media until they entered mitosis eight hours post-release. Patient-derived glioblastoma cells (HK-309) were collected and grown with approval from the UCLA Institutional Review Board. HK-309 was derived from a recurrent glioblastoma taken from a person. The cells were initially propagated as cancer stem cell-containing spheres in serum-free medium containing basic fibroblast growth factor and epidermal growth factor (Preprotech) as described previously by Visnyei et al., Mol Cancer Ther 2011, 10, (10), 1818-28.
For mitotic arrest IC50s, cells were treated with a twenty-point-2-fold-titration (190 pM to 10 μM) of each compound tested for 20 hours. For cell viability IC50s, cells were treated with a fourteen-point-2-fold-titration (12.2 nM to 100 μM). Mitotic arrest IC50 was determined by measuring the percent G2/M arrest using the Vybrant DyeCycle Green (Invitrogen) assay described above. Cell viability IC50 was determined using the CellTiter-Glo Assay (Promega), which measures total ATP levels. Plates were read with a Tecan M1000 micro-plate reader at 540 nm. The CDD software was used for generating IC50 and IC90 values.
For orientation: ATP-based viability assays read luminescence as a measure of living cells.

A further assay has as its target T1, tubulin (Sus scrofa, UniProt P02554).
T1 construct: purchased Cytoskeleton Inc. BK011P
The assay can be described thus: In vitro tubulin polymerization assay (HTS-tubulin polymerization kit, Cytoskeleton). The assay is classed as biochemical. To be noted: 3 μM compound, fluorescence, 70 minutes at 37° C. On the procedure: 1.5 ul of 10× strength compound, 20 μl of tubulin solution and Triton X-100 at a final concentration of 0.01% were added to each well in a 384 well plate. The reactions were assembled on ice to prevent tubulin pre-polymerization. For kinetic measurements, microtubule polymerization was monitored by reading the fluorescence at 420 nm (due to the incorporation of a fluorescent reporter into microtubules as polymerization occurs) every ten seconds using a Tecan M1000 microplate reader (FIG. 6B). […] Fluorescence increased as polymerization occurred, due to the incorporation of 4′,6-diamidino-2-phenylindole. Fluorescence was monitored every minute for 70 minutes at 37° C.
Tubulin polymerization reactions were carried out according to the manufacturer (Cytoskeleton, BK011P) in the presence of 3 μM colchicine, MI-181, taxol or DMSO. Polymerization was monitored with a Tecan M1000 micro-plate reader at 420 nm for 70 minutes at 37° C. The results are depicted in FIG. 11.

Assay [2] relates to patient-derived glioblastoma cells (HK-309). The assay can be described thus: CellTiter-Glo cell viability, patient-derived glioblastoma cells. It is filed as cell-based. To be noted: HK-309, 72 hours. On the procedure: as §1, §2
Assay [3] has as its system HeLa cells. The assay can be described thus: Microtubule stability by immunofluorescence microscopy. The assay is classed as cell-based. As to conditions: increasing concentrations, anti-α-tubulin staining. As for the experimental part:
Next, microtubule stability was analyzed in HeLa cells treated with increasing concentrations of each of these three compounds by fixing the cells with 4% paraformaldehyde, staining them with Hoechst 33342 (DNA dye) to visualize their DNA and anti-α-tubulin antibodies to visualize microtubule structures and then imaging them by immunofluorescence microscopy.

The next assay concerns M308. In words: Melanoma colony formation, M308. The assay is classed as cell-based. To be noted: 10 nM, M308 (second value of pair). As for the experimental part:
(§3) To determine if MI-181 had broad anti-cancer activity, we treated a diverse panel of cancer cell lines including cervical adenocarcinoma (HeLa), breast adenocarcinoma (MCF7), melanoma (M233), osteosarcoma (U205), acute lymphoblastic leukemia (CCRF-CEM), non-small cell lung carcinoma (NCI-H460), and breast adenocarcinoma (MCF7) with MI-181 and determined its cell viability IC50 (FIGS. 13A and 13B). […] Therefore, the efficacy of MI-181 was analyzed in a panel of melanoma cell lines with defined genetic backgrounds including BRAF^V600E and NRAS^Q61L mutations and varied sensitivities to Vemurafenib (BRAF inhibitor) and Trametinib (MEK inhibitor), which are currently used to treat BRAF^V600E melanomas^43,44 (FIG. 10c). […] As a general trend BRAF^V600E cell lines were slightly more sensitive than NRAS^Q61L cell lines and MI-181 was effective in Vemurafenib and Trametinib resistant cell lines (FIG. 10c and Table 3). Finally, we tested the ability of MI-181 to inhibit melanoma colony formation using the M233 and M308 cell lines (both resistant to Vemurafenib). Indeed, MI-181 was a potent inhibitor of colony formation (percentage colony formation for 10 nM MI-181=0.2±0.1 and 0.8±0.7; for 10 nM colchicine=0.1±0.06 and 1.5±0.5; and for 10 nM Vemurafenib=94±7 and 102±5) (FIG. 10d). Thus, MI-181 is a potent inhibitor of melanoma cell lines.

The subject of a further assay is M233. In words: Melanoma colony formation, M233. The assay is classed as cell-based. To be noted: 10 nM, M233 (first value of pair). As for the experimental part: as §3

Molecules are shown by their SMILES. Some results are limits rather than exact numbers.

T1 sequence (P02554 whole entry): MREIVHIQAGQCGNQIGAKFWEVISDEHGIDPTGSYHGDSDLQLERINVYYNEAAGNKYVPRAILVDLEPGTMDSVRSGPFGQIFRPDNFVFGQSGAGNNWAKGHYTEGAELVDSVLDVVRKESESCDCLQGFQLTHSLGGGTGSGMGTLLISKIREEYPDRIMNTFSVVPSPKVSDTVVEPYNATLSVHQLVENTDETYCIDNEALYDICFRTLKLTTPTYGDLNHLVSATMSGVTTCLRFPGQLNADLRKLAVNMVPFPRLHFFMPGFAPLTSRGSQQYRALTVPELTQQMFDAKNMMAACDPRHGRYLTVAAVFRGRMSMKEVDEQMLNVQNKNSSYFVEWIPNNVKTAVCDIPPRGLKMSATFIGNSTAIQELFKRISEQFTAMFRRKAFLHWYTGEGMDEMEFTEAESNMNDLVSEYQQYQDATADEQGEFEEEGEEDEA
T1 sequence (P02550 whole entry partner): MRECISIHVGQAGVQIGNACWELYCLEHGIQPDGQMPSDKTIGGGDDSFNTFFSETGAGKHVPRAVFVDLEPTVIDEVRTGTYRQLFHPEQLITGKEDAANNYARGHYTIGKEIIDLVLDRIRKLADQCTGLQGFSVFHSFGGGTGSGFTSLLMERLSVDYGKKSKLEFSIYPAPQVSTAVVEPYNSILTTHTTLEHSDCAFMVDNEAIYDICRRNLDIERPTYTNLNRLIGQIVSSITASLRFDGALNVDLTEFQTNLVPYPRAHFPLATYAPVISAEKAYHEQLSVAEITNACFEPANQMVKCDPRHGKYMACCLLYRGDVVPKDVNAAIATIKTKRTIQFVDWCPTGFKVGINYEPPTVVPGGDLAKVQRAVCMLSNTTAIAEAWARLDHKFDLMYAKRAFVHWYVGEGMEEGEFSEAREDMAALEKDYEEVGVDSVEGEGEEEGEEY

For orientation: IC50 means the concentration needed to halve the response being measured. A higher IC50 goes with lower potency. As for `O=c1[nH]c(/C=C/c2ccc(F)cc2)nc2sc3c(c12)CCCC3` [Compound 10c, (E)-2-(4-fluorostyryl)-5,6,7,8-tetrahydrobenzo[4,5]thieno[2,3-d]pyrimidin-4(3H)-one], in the assay on HeLa cells [1], the concentration for half-maximal inhibition (IC50) was determined as 1.11 µM. Take `O=c1[nH]c(/C=C/c2ccc(F)cc2F)nc2sc3c(c12)CCCC3` [Compound 10a, (E)-2-(2,4-difluorostyryl)-5,6,7,8-tetrahydrobenzo[4,5]thieno[2,3-d]pyrimidin-4(3H)-one]: the “inhibition of microtubule (tubulin) polymerization in vitro” value on tubulin was “potent inhibitors of microtubule polymerization similar to colchicine”. Moreover, the concentration for half-maximal inhibition (IC50) in assay [2] came out at 0.283 µM; with HeLa cells [1] it was 0.246 µM. For the same compound, the “microtubule stability in treated cells” value in the assay on HeLa cells [3] was “destabilized in a drug dose-dependent manner”. `Cc1ccc(/C=C/c2nc3sc4c(c3c(=O)[nH]2)CCCC4)cc1` [Compound 10m, (E)-2-(4-methylstyryl)-5,6,7,8-tetrahydrobenzo[4,5]thieno[2,3-d]pyrimidin-4(3H)-one] returned an IC50 with HeLa cells [1] of over 100 µM.

Turning to `CCCS(=O)(=O)Nc1ccc(F)c(C(=O)c2c[nH]c3ncc(-c4ccc(Cl)cc4)cc23)c1F` [Vemurafenib], the percentage colony formation in the assay with M308 turned out to be 102±5; in the assay with M233 it was 94±7. With `COc1ccc(/C=C/c2nc3sc4c(c3c(=O)[nH]2)CCCC4)cc1` [Compound 10h, (E)-2-(4-methoxystyryl)-5,6,7,8-tetrahydrobenzo[4,5]thieno[2,3-d]pyrimidin-4(3H)-one], the half-maximal inhibitory concentration (IC50) in the assay with HeLa cells [1] stood at 50.9 µM. On the same count and under the same terms, the figure for `Cc1cccc(/C=C/c2nc3sc4c(c3c(=O)[nH]2)CCCC4)c1` [Compound 10g, (E)-2-(3-methylstyryl)-5,6,7,8-tetrahydrobenzo[4,5]thieno[2,3-d]pyrimidin-4(3H)-one] is over 100 µM; for `O=c1[nH]c(/C=C/c2ccc(Br)cc2)nc2sc3c(c12)CCCC3` [Compound 10i, (E)-2-(4-bromostyryl)-5,6,7,8-tetrahydrobenzo[4,5]thieno[2,3-d]pyrimidin-4(3H)-one] it is over 100 µM; for `O=c1[nH]c(/C=C/c2ccccc2C(F)(F)F)nc2sc3c(c12)CCCC3` [Compound 10u] it is over 100 µM. Same read-out and setting: the result for `CCOc1ccc(/C=C/c2nc3sc4c(c3c(=O)[nH]2)CCCC4)cc1` [Compound 10l, (E)-2-(4-ethoxystyryl)-5,6,7,8-tetrahydrobenzo[4,5]thieno[2,3-d]pyrimidin-4(3H)-one] reads over 100 µM; that for `COc1ccc(/C=C/c2nc3sc4c(c3c(=O)[nH]2)CCCC4)cc1OC` [Compound 10k, (E)-2-(3,4-dimethoxystyryl)-5,6,7,8-tetrahydrobenzo[4,5]thieno[2,3-d]pyrimidin-4(3H)-one], over 100 µM; that for `COc1cccc(/C=C/c2nc3sc4c(c3c(=O)[nH]2)CCCC4)c1` [Compound 10d, (E)-2-(3-methoxystyryl)-5,6,7,8-tetrahydrobenzo[4,5]thieno[2,3-d]pyrimidin-4(3H)-one], 4.21 µM. `CCOc1ccc(/C=C/c2nc3sc4c(c3c(=O)[nH]2)CCCC4)cc1OC` [Compound 10f, (E)-2-(4-ethoxy-3-methoxystyryl)-5,6,7,8-tetrahydrobenzo[4,5]thieno[2,3-d]pyrimidin-4(3H)-one] had a 50% inhibitory concentration (IC50) in the assay on HeLa cells [1] of 25.9 µM. For the compound `COc1cc2c(c(OC)c1OC)-c1ccc(OC)c(=O)cc1[C@@H](NC(C)=O)CC2` [colchicine], the percentage colony formation in the assay on M308 turned out to be 1.5±0.5; with M233, 0.1±0.06. In the assay with HeLa cells [1], `O=c1[nH]c(/C=C/c2ccc(F)c(F)c2)nc2sc3c(c12)CCCC3` [Compound 10j, (E)-2-(3,4-difluorostyryl)-5,6,7,8-tetrahydrobenzo[4,5]thieno[2,3-d]pyrimidin-4(3H)-one] showed a half-inhibitory concentration (IC50) of over 100 µM. Same read-out and setting: the result for `CSc1ccc(/C=C/c2nc3sc4c(c3c(=O)[nH]2)CCCC4)cc1` [Compound 10e, (E)-2-(4-methylthiostyryl)-5,6,7,8-tetrahydrobenzo[4,5]thieno[2,3-d]pyrimidin-4(3H)-one] reads 6.31 µM.

As to `O=c1[nH]c(/C=C/c2cc(F)ccc2F)nc2sc3c(c12)CCCC3` [Compound 10b, (E)-2-(2,5-difluorostyryl)-5,6,7,8-tetrahydrobenzo[4,5]thieno[2,3-d]pyrimidin-4(3H)-one], the “inhibition of microtubule (tubulin) polymerization in vitro” value at tubulin was “potent inhibitors of microtubule polymerization similar to colchicine”. For the same compound, the IC50 in assay [2] came out at 0.113 µM; in the assay with HeLa cells [1], 0.159 µM. For the same compound, the “microtubule stability in treated cells” value with HeLa cells [3] was “destabilized in a drug dose-dependent manner”.

(Values after US10913750B2, “Tubulin-binding compounds, compositions and uses related thereto” (The Regents of the University of California, priority 2015, dated 2021).)
